The text below walks through data of patent US20190008864A1, “PHARMACEUTICAL COMPOSITION CONTAINING GPR119 LIGAND AS EFFECTIVE INGREDIENT FOR PREVENTING OR TREATING NON-ALCOHOLIC STEATOHEPATITIS” (PHARMEDIX.CO., LTD., priority 2014, published 2019).

For one assay, the system named is iNOS protein. Briefly: iNOS protein expression after LPS stimulation in RAW264.7 cells (western blot). Format: cell-based, mouse. Conditions: RAW264.7, 3 μM, 10 ng/ml LPS, 6 hours. As for the experimental part: RAW264.7 cells cultured in 6-well plates were stabilized for 12 hours in a serum-free medium, and then exposed to 3 μM of MBX-2982 and 10 ng/ml of LPS. After 6 hours, the cells were lysed in cytolysis buffer and voltexed. Centrifugation was conducted at 14,000 rpm and 4° C. for 20 minutes. A supernatant of the centrifuged solution was collected and then subjected to protein quantification by the Bradford assay. 15 μg of a protein thereof was electrophoresed on an SDS polyacrylamide gel, and then expression changes of iNOS and COX-2 proteins were measured by western blotting. Expression changes in triplicate experiments were measured with a densitometer and are shown as graphs.
As described above, RAW264.7 cells, which were derived from a mouse macrophage cell line, was subjected to LPS stimulation, and then inflammatory marker changes therein were evaluated. Results are illustrated in FIG. 17.
Background: Immunoblotting shows a protein as a band on a membrane.

For another assay, the system named is FAS. Briefly: FAS expression under high-glucose/high-insulin exposure, HepG2 (western blot). Format: cell-based, human. As for the experimental part:
A 6-well plate was inoculated with HepG2 (ATCC, US), as a human hepatocyte line, and cultured until confluence in a DMEM medium containing 1% penicillin-streptomycin (Hyclone, US) and 10% fetal bovine serum (Hyclone, US) in a 5% CO2 incubator at 37° C. The medium containing 10% fetal bovine serum of the hepatocyte line grown to confluence was replaced by a medium not containing FBS. The cell line was additionally cultured for 18 hours and used as a sample for an experiment.
Sodium dodecyl sulfate-polyacrylamide gel electrophoresis (SDS-PAGE) was carried out by means of a gel electrophoresis device (Mighty Small SE 250, Hoefer Scientific Instruments, San Francisco) according to a method by Laemmli (UK, Nature 227, 680-685, 1970). […] Whether total protein contents in samples are the same is determined using anti-β-actin and anti-LaminA/C antibodies. Changes in protein expression amounts were determined by measuring the intensities of chemiluminescence signals on the blot by means of densitometry. […] Each lane was calculated using AlphaEase™ version 5.5 software and background intensity was removed from the calculated values. […]

For assay [1], the system named is mouse liver tissue and hepatocyte line. In words: Summary statement: mouse liver tissue and hepatocyte line treated with the two GPR119 ligands. Format: cell-based.
In another assay the test system is MCP-1 mRNA. In words: MCP-1 mRNA after LPS stimulation in RAW264.7 cells (real time PCR). The class given is cell-based, mouse. The settings on record: RAW264.7, 3 μM, 10 ng/ml LPS, 6 hours. As for the experimental part: (§1) RAW264.7 cells cultured in 6-well plates were stabilized for 12 hours in a serum-free medium, and then exposed to 3 μM of MBX-2982 and 10 ng/ml of LPS. After 6 hours, RNA samples extracted with TRIZOL were reversely transcribed using a cDNA synthesis PCR kit to synthesize cDNAs. The cDNAs obtained through reverse transcription were used as a template, and primers for 5′ and 3′ flanking sequences of cDNAs to be amplified were as follows. Real time PCR (Mini-Opticon, Bio-Rad, US) was carried out and the expression levels of mRNA were investigated.
(§2) Inflammatory marker change results evaluated after LPS stimulation for RAW264.7 cells, which were derived from a mouse macrophage cell line, are illustrated in FIG. 18.
(In general: Real-time PCR tracks product formation cycle by cycle.)

A further assay concerns TNF-alpha mRNA. Briefly: TNF-alpha mRNA after LPS stimulation in RAW264.7 cells (real time PCR). The class given is cell-based, mouse. Conditions: RAW264.7, 3 μM, 10 ng/ml LPS, 6 hours. As for the experimental part: as §1, §2
Assay [2] relates to non-alcoholic steatohepatitis (NASH) animal models induced by methionine-choline deficient diet. Briefly: NASH animal model induced by methionine-choline deficient diet. The settings on record: MCD diet 4 weeks, 10 and 30 mg/kg oral. Format: in vivo, C57BL/6J mice. An excerpt:
A liver fibrosis-inducing diet in the present invention is a methionine and choline-deficient (MCD) diet. Six-week-old male C57BL/6J mice (Central Lab. Animal Inc., Seoul, Korea) were acclimated to an experimental environment for one week while being fed solid food, and then randomly divided into a control group and an experimental group for the MCD diet using a randomized block design. The animal groups were fed for 4 weeks, and thus, liver fibrosis animal models were established. Liver fibrosis development was determined according to blood biochemical and histochemical analysis methods. The mice were orally fed once a day for five days every week with a GPR119 ligand (10 mg/kg and 30 mg/kg), which was suspended in 40% PEG400, in combination with the MCD diet. After terminating the experiment, the experimental animals fasted for 12 hours or more. Subsequently, blood and liver samples were collected from the animals, which had been anesthetized with diethyl ether, and then washed with a 0.1 M phosphate buffered saline (pH 7.4), followed by being weighed. […] Serum Lactate dehydrogenase (LDH) from the experimental animals raised for 4 weeks was measured as follows. The serum LDH was measured using a commercially available measurement kit (Bio Clinical system). […] Steatosis, ballooning, and lobular inflammation were blindly assessed by pathologists.

SMILES strings stand for the structures.

Regarding `CCc1cnc(N2CCC(c3nc(COc4ccc(-n5cnnn5)cc4)cs3)CC2)nc1` [MBX2982, 4-((4-(1H-tetrazol-1-yl)phenoxy)methyl)-2-(1-(5-ethylpyrimidin-2-yl)piperidin-4-yl)thiazole], the “expression of iNOS protein” value in the assay with iNOS protein is reported as “decreased”. The “FAS expression increased by high-glucose/high-insulin” value in the assay with FAS is recorded as “inhibited”. In assay [1], the “activity of SREBP-1c” value is given as “inhibited”, the “expression of GPR119” value is “increased”, the “expression of acetyl CoA carboxylase (ACC)” value was “inhibited” and the “expression of fatty acid synthase (FAS)” value is given as “inhibited”. Further, the “expression of stearoyl-CoA desaturase (SCD)” value in assay [1] is recorded as “inhibited”. Further, the “expression of MCP-1 mRNA” value with MCP-1 mRNA is reported as “decreased”. Besides, in the assay with TNF-alpha mRNA, the “expression of TNF-alpha mRNA” value is “decreased”. Further, in assay [2], the “lobular inflammation (NAFLD activity score)” value was “inhibited” and the “other markers (steatosis, ballooning, serum LDH)” value is recorded as “did not show significant changes”.
